Results taken from PubChem BioAssay (NCI).
Values joined by “and” are separate entries in the source; they are usually repeats but may differ in a detail not shown here. Equal entries are not always repeated.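 Test compounds were applied to cells in 96-well plates for 48 hours at 5 doses. Abbreviation: GI50, concentration required for 50% inhibition of growth. TGI: concentration producing complete growth inhibition.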

What was measured:
Test in all cases: growth of human tumour cells (NCI), 48 h
SK-MEL-28 melanoma = system: SK-MEL-28 melanoma
SK-OV-3 ovarian = system: SK-OV-3 ovarian
U251 CNS = system: U251 CNS
OVCAR-8 ovarian = system: OVCAR-8 ovarian
HCT-116 colon = system: HCT-116 colon
M14 melanoma = system: M14 melanoma
IGROV1 ovarian = system: IGROV1 ovarian
HOP-92 NSCLC = system: HOP-92 NSCLC
SNB-78 CNS = system: SNB-78 CNS
M19-MEL melanoma = system: M19-MEL melanoma
NCI-H23 lung = system: NCI-H23 lung

SMILES	GI50 (SK-MEL-28 melanoma) [µM]	TGI (SK-MEL-28 melanoma)	GI50 (SK-OV-3 ovarian) [µM]	TGI (SK-OV-3 ovarian)	TGI (U251 CNS) [µM]	GI50 (OVCAR-8 ovarian) [µM]	TGI (HCT-116 colon)	TGI (M14 melanoma) [µM]	TGI (IGROV1 ovarian) [µM]	TGI (HOP-92 NSCLC) [µM]	TGI (SNB-78 CNS) [µM]	TGI (M19-MEL melanoma) [µM]	TGI (OVCAR-8 ovarian) [µM]	TGI (NCI-H23 lung) [µM]
CN(C)CCCNc1c2ccccc2nc2cccc([N+](=O)[O-])c12	0.0202	0.00689 µM and 0.0422 µM	0.0204	0.0921 µM and 0.0723 µM	0.0143	< 0.001	0.0132 µM and 0.0316 µM	0.00165	0.00491	0.00435	0.0601	0.0787	–	–
CC(=O)OCc1cc(=O)n(C)c2c3c4c(cc12)c(C)cc(=O)n4CO3	–	3.42 µM	–	51 µM	26.6	–	20 µM	–	11.5	10	14.2	4.21	12.7	5.01
CSc1nc(NC2OCC(O)C(O)C2O)c(N)c(=O)n1C (stereo not given)	–	> 100 µM	–	> 100 µM	> 100	–	> 100 µM	–	> 100	> 100	> 100	–	> 100	> 100
COc1cccc2c1C1(O)C2CCCC12OCCCO2 (stereo not given)	–	> 100 µM	–	> 100 µM	> 100	–	> 100 µM	> 100	> 100	–	> 100	> 100	> 100	> 100
[N-]=[N+]=NC1CC(n2cc(COCC(F)(F)F)c(=O)[nH]c2=O)OC1CO (stereo not given)	–	> 100 µM	–	> 100 µM	> 100	–	–	> 100	> 100	> 100	> 100	> 100	> 100	> 100
CCOC(=O)c1c2c(n(-c3ccc(OC)cc3)c1C)C(=O)C(=O)c1ccccc1-2	–	3.89 µM	–	6.03 µM	2.63	–	3 µM	3.17	12.7	3.98	–	–	2.76	3.24
N#Cc1c(N2CCCC2)ncn(Cc2ccccc2)c1=S	–	> 100 µM	–	> 100 µM	> 100	–	> 100 µM	> 100	> 100	99.3	–	–	> 100	> 100
C=CC(C)(C)N[C@@H](C(=O)N1CCC[C@H]1c1nc(-c2nc(C(=O)OCC=C(C)C)c(C)o2)c(C)o1)C(C)C	–	38.2 µM	–	86.8 µM	45.1	–	38.6 µM	83.4	> 100	35	–	–	65	48.1
Cc1cc(=O)n2nc(CSc3nnc(N)s3)sc2n1	–	> 100 µM	–	> 100 µM	> 100	–	> 100 µM	> 100	> 100	> 100	–	–	> 100	> 100
C=C(CC(=O)Nc1ccc(C(=O)OC)o1)C(=O)OC	–	44.6 µM	–	86.3 µM	> 100	–	76.7 µM	36.1	55.5	> 100	–	–	> 100	72.7
COc1ccc(/C=C2\CC3C4CC=C5C[C@@H](O)CC[C@]5(C)C4CC[C@]3(C)\C2=N\O)cc1OC (stereo not given in full)	–	> 100 µM	–	> 100 µM	> 100	–	> 100 µM	> 100	> 100	> 100	–	–	> 100	> 100
Cc1nccn1S(=O)(=O)c1ccc(Br)cc1Br	–	> 100 µM	–	> 100 µM	> 100	–	> 100 µM	39.7	> 100	75.3	–	–	> 100	> 100
CC(=O)NC1=C(C)C(=O)c2c(nc3n2CCC3O)C1=O (stereo not given)	–	> 100 µM	–	> 100 µM	> 100	–	67.7 µM	> 100	> 89.7	33.3	64.4	> 57.1	68.1	> 89.8
COC(=O)/C=C\C(C#N)(C#N)N=Cc1ccc(C)s1	–	9.64 µM	–	28.2 µM	28.8	–	2.65 µM	3.5	4.94	3.24	–	–	9.97	6.69
O=C(NNc1cn[nH]c(=O)c1Cl)/C(=C/c1ccc2c(c1)OCO2)NC(=O)c1ccccc1	–	> 100 µM	–	> 100 µM	> 100	–	> 100 µM	> 100	> 100	> 100	–	–	> 100	> 100
O=C1OC2(C(F)(F)F)Oc3ccccc3CN2C12CCCCC2 (stereo not given)	–	> 100 µM	–	81.7 µM	84.4	–	82.8 µM	66	> 100	61.7	–	–	> 100	95.2
COc1ccc(/C=C(\C(=C/c2ccc(OC)cc2)[N+](=O)[O-])[N+](=O)[O-])cc1	–	6.76 µM	–	32.4 µM	8.52	–	24.8 µM	18.2	15.4	10	–	–	5.97	16
O=C(NCCCCNCCCNC(=O)c1ccccc1)c1ccccc1	–	> 100 µM	–	> 100 µM	> 100	–	> 100 µM	> 100	> 100	> 100	–	–	> 100	> 100

SMILES	GI50 (SK-MEL-28 melanoma) [µM]	TGI (SK-MEL-28 melanoma)	GI50 (SK-OV-3 ovarian) [µM]	TGI (SK-OV-3 ovarian)	TGI (U251 CNS) [µM]	GI50 (OVCAR-8 ovarian) [µM]	TGI (HCT-116 colon)	TGI (M14 melanoma) [µM]	TGI (IGROV1 ovarian) [µM]	TGI (HOP-92 NSCLC) [µM]	TGI (SNB-78 CNS) [µM]	TGI (M19-MEL melanoma) [µM]	TGI (OVCAR-8 ovarian) [µM]	TGI (NCI-H23 lung) [µM]
O=C(c1ccccc1)c1c(C(F)(F)F)n([O-])c2cc(Cl)c(Cl)cc2[n+]1=O	–	7.19 µM	–	8.99 µM	2.71	–	0.989 µM	3.2	0.984	19.9	–	–	20.9	1.11
CN(C)CCOC(=O)c1ccc(N)cc1	–	67.5 µM	–	> 100 µM	> 100	–	> 100 µM	34.8	74.9	49.5	–	–	> 100	> 100
COC(=O)c1ccc(CCc2cc(O)ccc2O)cc1	–	42.2 µM	–	> 78 µM	33.2	–	24 µM	27.8	23.8	26.4	–	–	> 52.7	> 54.9
CCOP(=O)(OCC)/C(=C\N1C(=O)CC(=O)NC1=S)C(=O)OC	–	> 100 µM	–	> 100 µM	> 100	–	> 100 µM	> 100	> 100	> 100	–	–	> 100	> 100
COc1ccc2c(c1)nc1n2C(N)=Nc2ccccc2S1	–	> 100 µM	–	> 100 µM	> 100	–	> 100 µM	> 80.6	> 100	63.5	–	–	> 82.1	> 100
CC1CCc2c(sc3ncnc(N/N=C/c4ccc(Cl)c(Cl)c4)c23)C1 (stereo not given)	–	> 100 µM	–	89.6 µM	20	–	> 100 µM	30.2	> 100	–	–	96.2	58	79.8
C[C@@H]1C[C@]2(C[C@@H](C)[C@H]3C(C[C@@]4(C)CCC[C@@H]5C6=C[C@H](CCC34C)OC6=CC(=O)OC5(C)C)O2)OC1=O (stereo not given in full)	–	–	–	> 51.5 µM	> 51.5	–	–	–	> 51.5	> 51.5	> 51.5	> 51.5	> 51.5	> 51.5
COc1cc(/C=C2\N=C(c3ccccc3)N(/N=C3\C(=O)Nc4ccccc43)C2=O)cc(OC)c1OC	–	> 100 µM	–	> 100 µM	> 100	–	> 100 µM	> 100	> 100	> 100	–	–	> 100	> 100
CC(NC1=NCCO1)c1cccc([N+](=O)[O-])c1 (stereo not given)	–	> 100 µM	–	> 100 µM	> 100	–	> 100 µM	> 100	> 100	> 100	–	–	> 100	> 100
Oc1ccc2c(c1)CC[N+]1=C2CCC2CCCC21 (stereo not given)	–	> 100 µM	–	> 100 µM	–	–	> 100 µM	> 100	> 100	> 100	–	> 100	> 100	> 100
N#CC(C#N)=Cc1c(O)ccc2ccccc12	–	28.9 µM	–	34.7 µM	32.5	–	30.9 µM	28.3	39.4	23.4	–	–	36.4	26.9
O=C1c2ccccc2C(=O)c2c1ccc1c2N=C(c2ccc(F)cc2)CC(c2ccc(Cl)c(Cl)c2)N1 (stereo not given)	–	36 µM	–	48.9 µM	24.7	–	23.7 µM	37.7	23.4	90	41.5	40.4	26.6	33.4
CCNC(=O)/C=C/CCC#Cc1ccc(-c2ccc(-c3cccs3)s2)s1	–	–	–	> 100 µM	> 100	–	> 100 µM	> 100	> 100	> 100	> 100	> 100	> 100	> 100
O=C1C=C2CO[C@H]3OC[C@H](O)[C@@H]1[C@@H]23	–	> 100 µM	–	> 100 µM	63.6	–	> 100 µM	> 100	> 100	> 100	–	–	> 100	> 100
Cc1cc(NS(=O)(=O)c2ccc(NC(=O)c3cccc4c(NNc5ccc(S(=O)(=O)N=C(N)N)cc5)c5ccccc5nc34)cc2)no1	–	> 100 µM	–	> 100 µM	64.7	–	> 100 µM	> 100	> 100	92.7	–	–	> 100	> 100
C=C1C(=O)O[C@H]2C/C(C)=C/CC/C(C)=C/CC[C@@](C)(O)[C@@H](I)C[C@@H]12	–	30 µM	–	29.8 µM	33.4	–	12.3 µM	24.8	10.2	9.82	–	–	5.74	2.43
O=C(OCCN1CCCCC1)C(c1ccccc1)C1(O)CCSCC1 (stereo not given)	–	> 100 µM	–	> 100 µM	> 100	–	> 100 µM	> 100	> 100	> 100	–	–	> 100	> 100
